Measured values taken from PMC8047011, “Enantiomers of 2-methylglutamate and 2-methylglutamine selectively impact mouse brain metabolism and behavior” (Scientific Reports, 2021).
pEC50, pIC50: −log10 of the molar value.

Columns and labels:
GABAB (B1/B2) = target: T1, GABAB (B1/B2) (Homo sapiens, UniProt Q9UBS5); assay: GABAB binding assay (B1/B2; nonsel); details: triplicate, rat, read-out: % of radioligand binding inhibition, GABAB nonsel
T1 construct: purchased SB Drug Discovery (CNS discovery panel, FLIPR); Eurofins Discovery (Cerep)
Experimental: (§1) mGluR1, mGluR2, mGluR5 and GABAB binding assays were performed by Eurofins Discovery. […]
(§2) mGluR5 and GABAB binding assays were performed using recombinant CHO-K1 cells and
(§3) [3H]CGP-54626 and [3H]quisqalic acid, respectively. All compounds were tested at a single
(§4) concentration of 100 uM in triplicate. […]

GABAA α2β3γ2 = target: T2, GABAA α2β3γ2 (Homo sapiens, UniProt P28472+P47869); assay: FLIPR functional receptor assay, GABAA α2β3γ2; assay type: cell-based; details: agonist mode; top test concentration 1 mM
T2 construct: host or cells: HEK 293
Experimental: (§5) Receptor functional & binding assays
(§6) Functional assays of all GABAA, NMDA (GluN2A–GluN2D) and AMPA (GluA2) receptor subunits were performed by SB Drug Discovery as a part of their CNS discovery panel using FLIPR technology. Briefly, receptor-expressing HEK 293 cell lines were incubated in a red membrane potential dye in HEPES:HBSS pH 7.4 buffer and the fluorescence (λex: 488, λex: 510–570) was monitored over time as the test compounds and/or reference compounds were added to the solution. In agonist assay, only test compounds were added. In positive allosteric modulator assay, cells were preincubated with test compounds and then low concentration (approximately EC20) of an appropriate agonist was added. In antagonist assay, cells were preincubated with test compounds and then high concentration (approximately EC80) of an appropriate agonist was added. For GABAA assays, GABA was used as the agonist, picrotoxin was used as the reference antagonist and allopregnanolone was used as the reference positive allosteric modulator (PAM). For NMDA assays, a mixture of glutamate, glycine and CaCl2 was used as the agonist, MK801 was the reference antagonist and pregnenolone sulfate or GNE 9278 were used as reference PAMs. […] All compounds were tested at 7 concentration points in triplicate and EC50/IC50 was determined where applicable. […]

GABAA α4β2γ2 = target: T3, GABAA α4β2γ2 (Homo sapiens, UniProt P47870+P48169); assay: FLIPR functional receptor assay, GABAA α4β2γ2; assay type: cell-based; details: agonist mode; top test concentration 1 mM
T3 construct: host or cells: HEK 293
Experimental: (§7) intensity and lower number of tone and shock (2x) pairings to create a greater opportunity to observe pharmacologic activity.
as §5
as §6, with “(PAM).” for “(PAM). For NMDA assays, a mixture of glutamate, glycine and CaCl2 was used as the agonist, MK801 was the reference antagonist and pregnenolone sulfate or GNE 9278 were used as reference PAMs.”

mGluR1 = target: T4, mGluR1 (Rattus norvegicus, UniProt P23385); assay: mGluR1 radioligand binding assay; details: triplicate
T4 construct: purchased SB Drug Discovery (CNS discovery panel, FLIPR); Eurofins Discovery (Cerep)
Experimental: as §1, §3, §4

GABAA α4β1γ2 = target: T5, GABAA α4β1γ2 (Homo sapiens, UniProt P18505+P48169); assay: FLIPR functional receptor assay, GABAA α4β1γ2; assay type: cell-based; details: agonist mode; top test concentration 1 mM
T5 construct: host or cells: HEK 293
Experimental: as §5, §6

kainate nonspecific = assay: Nonspecific kainate binding assay; details: 100 μM, triplicate; rat
Experimental: (§8) Nonspecific AMPA, kainate and NMDA binding assays were performed by Eurofins Discovery
(§9) (Cerep) using rat cerebral cortex membranes and radiolabeled [3H]AMPA, [3H]kainic acid and
(§10) [3H]CGP 39653, respectively. […]

GABAA α2β2γ2 = target: T6, GABAA α2β2γ2 (Homo sapiens, UniProt P47869+P47870); assay: FLIPR functional receptor assay, GABAA α2β2γ2; assay type: cell-based; details: agonist mode; top test concentration 1 mM
T6 construct: host or cells: HEK 293
Experimental: as §5, §6

GABAA α4β3γ2 = target: T7, GABAA α4β3γ2 (Homo sapiens, UniProt P28472+P48169); assay: FLIPR functional receptor assay, GABAA α4β3γ2; assay type: cell-based; details: agonist mode; top test concentration 1 mM
T7 construct: host or cells: HEK 293
Experimental: as §7, §5
as §6, with “(PAM).” for “(PAM). For NMDA assays, a mixture of glutamate, glycine and CaCl2 was used as the agonist, MK801 was the reference antagonist and pregnenolone sulfate or GNE 9278 were used as reference PAMs.”

AMPA nonspecific = assay: Nonspecific AMPA binding assay; details: 100 μM, triplicate; rat
Experimental: as §8, §9, §10

GABAA α3β2γ2 = target: T8, GABAA α3β2γ2 (Homo sapiens, UniProt P34903+P47870); assay: FLIPR functional receptor assay, GABAA α3β2γ2; assay type: cell-based; details: agonist mode; top test concentration 1 mM
T8 construct: host or cells: HEK 293
Experimental: as §5, §6

GABAB (B1a/B2) = target: T9, GABAB (B1a/B2) (Homo sapiens, UniProt Q9UBS5); assay: GABAB (B1a/B2) binding assay; details: triplicate, read-out: % of radioligand binding inhibition, GABAB (B1a/B2)
T9 construct: purchased SB Drug Discovery (CNS discovery panel, FLIPR); Eurofins Discovery (Cerep)
Experimental: as §1, §2, §3, §4

GluN2A = target: T10, GluN2A (Homo sapiens, UniProt Q12879); assay: FLIPR functional receptor assay, GluN2A; assay type: cell-based
T10 construct: host or cells: HEK 293
Experimental: as §5, §6

T2 sequence (P47869 29-451): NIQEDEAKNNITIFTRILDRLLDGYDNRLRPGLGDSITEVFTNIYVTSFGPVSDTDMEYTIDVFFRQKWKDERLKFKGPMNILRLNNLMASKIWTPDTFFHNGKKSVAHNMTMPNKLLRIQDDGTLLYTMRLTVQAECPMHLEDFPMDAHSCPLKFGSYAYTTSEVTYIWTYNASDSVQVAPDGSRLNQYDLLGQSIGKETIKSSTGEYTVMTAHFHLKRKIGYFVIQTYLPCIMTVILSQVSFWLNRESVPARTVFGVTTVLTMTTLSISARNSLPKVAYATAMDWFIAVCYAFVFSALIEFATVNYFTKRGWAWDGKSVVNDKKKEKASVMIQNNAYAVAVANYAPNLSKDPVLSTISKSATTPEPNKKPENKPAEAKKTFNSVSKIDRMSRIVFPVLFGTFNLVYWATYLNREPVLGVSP
T2 sequence (P28472 26-473): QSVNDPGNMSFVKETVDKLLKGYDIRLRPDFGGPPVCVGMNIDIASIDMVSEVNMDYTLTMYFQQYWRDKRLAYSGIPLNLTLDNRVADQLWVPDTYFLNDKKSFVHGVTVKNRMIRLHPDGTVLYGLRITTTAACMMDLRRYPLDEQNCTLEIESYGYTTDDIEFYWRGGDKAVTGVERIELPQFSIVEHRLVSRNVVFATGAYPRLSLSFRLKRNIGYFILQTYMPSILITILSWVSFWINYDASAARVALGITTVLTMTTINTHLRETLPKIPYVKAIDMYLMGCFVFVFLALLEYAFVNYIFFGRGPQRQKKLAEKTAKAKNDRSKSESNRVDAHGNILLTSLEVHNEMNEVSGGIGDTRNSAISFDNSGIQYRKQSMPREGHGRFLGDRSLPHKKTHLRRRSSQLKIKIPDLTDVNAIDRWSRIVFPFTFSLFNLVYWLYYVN
T2 sequence (P18507 40-475 partner): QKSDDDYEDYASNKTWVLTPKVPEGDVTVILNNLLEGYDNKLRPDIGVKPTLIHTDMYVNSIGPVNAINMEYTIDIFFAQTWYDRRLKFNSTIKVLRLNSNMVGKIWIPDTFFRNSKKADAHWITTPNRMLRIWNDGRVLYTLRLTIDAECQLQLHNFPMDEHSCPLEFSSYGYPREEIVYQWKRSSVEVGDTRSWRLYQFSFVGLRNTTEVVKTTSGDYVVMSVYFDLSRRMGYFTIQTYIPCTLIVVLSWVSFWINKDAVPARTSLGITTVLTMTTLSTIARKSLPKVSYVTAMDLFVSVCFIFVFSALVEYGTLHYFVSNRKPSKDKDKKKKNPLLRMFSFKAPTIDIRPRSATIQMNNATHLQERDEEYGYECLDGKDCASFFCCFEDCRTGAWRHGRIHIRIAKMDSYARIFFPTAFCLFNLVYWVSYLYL
T6 sequence (P47869 29-451): as the sequence (P47869 29-451) above
T6 sequence (P47870 25-512 limits assumed): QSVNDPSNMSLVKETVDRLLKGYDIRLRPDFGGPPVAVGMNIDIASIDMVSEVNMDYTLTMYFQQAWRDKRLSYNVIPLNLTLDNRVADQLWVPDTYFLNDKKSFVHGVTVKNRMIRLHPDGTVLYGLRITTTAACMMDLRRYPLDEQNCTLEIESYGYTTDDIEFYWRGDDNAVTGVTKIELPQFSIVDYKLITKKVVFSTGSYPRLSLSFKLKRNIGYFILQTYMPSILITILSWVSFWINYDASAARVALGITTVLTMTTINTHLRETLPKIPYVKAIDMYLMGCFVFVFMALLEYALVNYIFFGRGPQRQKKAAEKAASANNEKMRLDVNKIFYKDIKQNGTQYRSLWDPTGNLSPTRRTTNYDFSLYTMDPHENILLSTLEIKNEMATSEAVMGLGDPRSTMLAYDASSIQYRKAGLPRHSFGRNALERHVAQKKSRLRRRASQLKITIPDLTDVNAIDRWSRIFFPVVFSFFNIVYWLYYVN
T6 sequence (P18507 40-475 partner): as the sequence (P18507 40-475 partner) above
T10 sequence (Q12879 23-1464, other chains not shown): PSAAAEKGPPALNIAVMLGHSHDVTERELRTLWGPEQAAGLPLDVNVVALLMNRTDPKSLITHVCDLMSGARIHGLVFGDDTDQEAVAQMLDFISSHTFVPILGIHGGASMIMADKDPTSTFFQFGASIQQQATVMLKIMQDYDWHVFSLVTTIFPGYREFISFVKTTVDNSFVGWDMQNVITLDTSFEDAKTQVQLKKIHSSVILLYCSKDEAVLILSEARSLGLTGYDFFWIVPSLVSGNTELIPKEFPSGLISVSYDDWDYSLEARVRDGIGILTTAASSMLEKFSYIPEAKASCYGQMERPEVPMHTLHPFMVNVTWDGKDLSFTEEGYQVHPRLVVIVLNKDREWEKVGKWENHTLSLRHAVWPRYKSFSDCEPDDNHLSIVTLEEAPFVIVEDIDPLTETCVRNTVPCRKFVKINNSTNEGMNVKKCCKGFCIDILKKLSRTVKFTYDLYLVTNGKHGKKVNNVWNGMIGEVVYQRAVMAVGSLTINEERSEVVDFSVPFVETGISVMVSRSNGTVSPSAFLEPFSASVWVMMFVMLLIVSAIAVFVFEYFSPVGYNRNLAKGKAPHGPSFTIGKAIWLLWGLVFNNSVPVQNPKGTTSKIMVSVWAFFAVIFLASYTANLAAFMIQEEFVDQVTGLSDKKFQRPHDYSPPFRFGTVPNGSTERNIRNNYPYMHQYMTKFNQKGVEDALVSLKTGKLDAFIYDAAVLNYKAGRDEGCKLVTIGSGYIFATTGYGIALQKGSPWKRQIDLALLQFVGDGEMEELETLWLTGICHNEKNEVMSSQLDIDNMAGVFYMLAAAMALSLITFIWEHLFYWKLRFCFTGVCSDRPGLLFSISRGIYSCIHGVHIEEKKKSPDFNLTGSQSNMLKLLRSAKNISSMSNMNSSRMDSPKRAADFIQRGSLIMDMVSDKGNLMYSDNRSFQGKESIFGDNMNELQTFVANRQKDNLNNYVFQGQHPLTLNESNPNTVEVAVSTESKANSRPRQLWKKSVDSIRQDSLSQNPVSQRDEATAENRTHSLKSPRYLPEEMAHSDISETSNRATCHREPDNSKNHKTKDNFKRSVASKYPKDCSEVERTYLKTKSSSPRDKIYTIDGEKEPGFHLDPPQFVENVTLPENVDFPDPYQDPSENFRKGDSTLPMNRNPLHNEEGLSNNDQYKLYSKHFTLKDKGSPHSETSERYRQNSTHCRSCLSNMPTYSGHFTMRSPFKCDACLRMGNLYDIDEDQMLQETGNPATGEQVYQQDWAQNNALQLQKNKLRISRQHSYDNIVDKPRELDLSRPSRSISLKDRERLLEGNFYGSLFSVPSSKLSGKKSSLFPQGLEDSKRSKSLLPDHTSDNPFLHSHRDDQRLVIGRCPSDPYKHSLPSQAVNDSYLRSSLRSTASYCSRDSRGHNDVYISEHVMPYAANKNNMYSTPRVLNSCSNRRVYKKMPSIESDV
T5 sequence (P48169 36-554): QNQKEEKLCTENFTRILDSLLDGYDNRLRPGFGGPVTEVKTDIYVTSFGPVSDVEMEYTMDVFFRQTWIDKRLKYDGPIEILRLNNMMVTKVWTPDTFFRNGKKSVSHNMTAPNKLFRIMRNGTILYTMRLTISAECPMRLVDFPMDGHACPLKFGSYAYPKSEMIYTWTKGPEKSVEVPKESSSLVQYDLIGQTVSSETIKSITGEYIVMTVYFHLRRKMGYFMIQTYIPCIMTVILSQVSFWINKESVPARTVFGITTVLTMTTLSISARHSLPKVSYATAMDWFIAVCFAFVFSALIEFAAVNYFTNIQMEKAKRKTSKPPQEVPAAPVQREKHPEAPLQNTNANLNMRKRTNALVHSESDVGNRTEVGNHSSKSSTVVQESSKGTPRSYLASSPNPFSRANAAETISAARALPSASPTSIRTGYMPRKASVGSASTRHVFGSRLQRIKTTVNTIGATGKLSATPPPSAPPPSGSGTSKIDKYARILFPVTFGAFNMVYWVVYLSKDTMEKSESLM
T5 sequence (P18505 26-474): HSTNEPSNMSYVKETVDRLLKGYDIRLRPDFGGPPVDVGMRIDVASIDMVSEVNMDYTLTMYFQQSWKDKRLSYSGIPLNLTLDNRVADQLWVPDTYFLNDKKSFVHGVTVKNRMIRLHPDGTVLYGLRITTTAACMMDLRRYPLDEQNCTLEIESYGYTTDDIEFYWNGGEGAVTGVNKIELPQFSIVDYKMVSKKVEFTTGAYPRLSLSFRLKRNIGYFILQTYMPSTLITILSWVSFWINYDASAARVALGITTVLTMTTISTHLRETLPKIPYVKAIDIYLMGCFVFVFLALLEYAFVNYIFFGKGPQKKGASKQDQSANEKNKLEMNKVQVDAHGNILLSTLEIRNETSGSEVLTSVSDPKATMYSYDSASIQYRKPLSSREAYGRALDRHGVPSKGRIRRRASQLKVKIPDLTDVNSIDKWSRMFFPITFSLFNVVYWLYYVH
T5 sequence (P18507 40-475 partner): as the sequence (P18507 40-475 partner) above
T3 sequence (P48169 36-554): as the sequence (P48169 36-554) above
T3 sequence (P47870 25-512 limits assumed): as the sequence (P47870 25-512 limits assumed) above
T3 sequence (P18507 40-475 partner): as the sequence (P18507 40-475 partner) above
T7 sequence (P48169 36-554): as the sequence (P48169 36-554) above
T7 sequence (P28472 26-473): as the sequence (P28472 26-473) above
T7 sequence (P18507 40-475 partner): as the sequence (P18507 40-475 partner) above

SMILES	inhibition at 100 µM (GABAB (B1/B2))	pEC50 (GABAA α2β3γ2)	pEC50 (GABAA α4β2γ2)	inhibition at 100 µM (mGluR1)	pEC50 (GABAA α4β1γ2)	% of radioligand binding inhibition, kainate nonspec (kainate nonspecific)	pEC50 (GABAA α2β2γ2)	pEC50 (GABAA α4β3γ2)	% of radioligand binding inhibition, AMPA nonspec (AMPA nonspecific)	pEC50 (GABAA α3β2γ2)	inhibition at 100 µM (GABAB (B1a/B2))	Activity against GluN2A (in words) (GluN2A)	pIC50 (GluN2A; antagonist mode, top test concentration 100 μM)
C[C@](N)(CCC(=O)O)C(=O)O [(S)-2MeGlu, (S)-2-methylglutamic acid]	5%	3.47	< 3.00	6%	3.15	20%	3.28	< 3.00	12%	3.02	6%		
C[C@@](N)(CCC(=O)O)C(=O)O [(R)-2MeGlu, (R)-2-methylglutamic acid]	5%	3.21	< 3.00	-3%	3.06	18%	3.18	< 3.00	15%	< 3.00	18%	weak antagonist behavior	4.16
